The results in this text go back to patent US5726156A, “Cytokine regulatory agents and methods of use in pathologies and conditions associated with altered cytokine levels” (Trega Biosciences, Inc., priority 1995, dated 1998).

For assay [1], the system named is Interleukin-6 (IL-6). The experiment in a line: Reduction of LPS-induced IL-6 levels in mice. In kind it is in vivo. To be noted: 300 μg/mouse; LPS treated Balb/c mice. The protocol: Balb/c mice were grouped and treated as described in Example III, above. Blood samples were obtained from the orbital sinus at various times up to six hr and serum was collected and diluted as described above. A 100 μl aliquot was assayed for IL-6 levels using an IL-6-specific ELISA by a modification of the method of Starnes etal., J. Immunol. 145:4185-4194 (1990), which is incorporated herein by reference.
The mean (+/- SEM) IL-6 level in six mice from each group was determined and the percent reduction in IL-6 was calculated.

For assay [2], the system named is IL-1β-induced hyperalgesia. The experiment in a line: IL-1β-induced hyperalgesia, paw pressure test. In kind it is in vivo, rats. Also on record: dose or concentration left out as unconfirmed. To be noted: IP 20 min before IL-1β intraplantar; 2 hr after IL-1. The protocol:
These experiments were performed using a modification of the methods described by Poole etal., Br. J. Pharmacol. 106:489-492 (1992); Foilenfant et al., Br. J. Pharmacol. 98:41-43 (1989); and Randall and Sellito, Arch. Internatl. Pharmacodyn. 111:409-419 (1957), each of which is incorporated herein by reference. Adult male Sprague-Dawley rats (175-275 g) were tested for hyperalgesia by a paw pressure technique using variable pressure instrumentation (IITC Life Sciences; Woodland Hills, Calif.). Rats were acclimated to the housing environment and were handled for three days prior to beginning a training session. On the day before the hyperalgesia experiments was to begin, each rat was placed into a sock and two variable paw pressure tests were performed 15 min apart. […] Approximately 5-10% of the rats were non-responders and were eliminated from further experiments.
Animals that responded to the paw pressure were pretreated by IP injection of various concentrations of EX-2 in a volume of 1 ml/kg (treated) or saline, alone (control). After 20 min, 100 μl of IL-1β (1U/100 μl) was administered to rats via intra plantar injection. Two hr after IL-1 administration, rats were subjected to two additional paw pressure tests and the increase in mm Hg of pressure that could be applied to the EX-2-treated rats as compared to the control rats was determined.

In assay [3] the test system is LPS-induced fever. The experiment in a line: LPS-induced temperature increase (fever). To be noted: 6 hr following LPS injection. The class given is in vivo, rats. The protocol: Male Wistar rats (45-75 days old) were placed in a temperature controlled room held at 26° C., which is thermoneutral for the normal body temperature of rats, and were maintained in the room with free access to food and water for 24 hr prior to testing. On the morning of the study, rats were marked for identification and weighed. The temperature of each rat was determined by placing the animal in a regulatory cage designed to minimize stress and inserting a temperature probe (YSI probe #402) 3-5 cm into the animal's rectum. The temperature was recorded 15 sec after the reading stabilized. Measurements were repeated 1 hr later to establish a baseline temperature for each rat.
After the baseline temperatures were established, rats were injected IP with saline, IL-1β or LPS endotoxin. Rats then were injected IP with either saline (control) or various concentrations of EX-2, EX-3, or EX-4 (treated). The temperature of the rats was measured every hr for 6 hr and the inhibition by EX-2, EX-3, or EX-4 of the rise in temperature due to IL-1β or LPS was determined.
In addition, treatment with 50 or 150 μg/kg EX-2 inhibited LPS-induced fever by 45% or 52%, respectively, when measured 6 hr following LPS injection. Furthermore, treatment with 150 μg/kg EX-3 or EX-4 inhibited LPS-induced fever by 57% and 52%, respectively (Table II).

For assay [4], the system named is STZ diabetes, blood glucose. The experiment in a line: Streptozotocin-induced diabetes. In kind it is in vivo, rats. As to conditions: 150 μg/kg every 8 hr for 72 hr; STZ 65 mg/kg iv. The protocol:
Male Sprague-Dawley rats were given 65 mg/kg of streptozotocin (STZ) intravenously through the tall vein. Rats were divided into two groups. The first group was administered EX-2, 150 μg/kg every 8 hr for 72 hr and the second group was a control. Blood samples were withdrawn under ether anesthesia every 8 hr for the first 72 hr, then every 12 hr or 24 hr until the end of the observation period. Plasma samples were assayed for glucose using a glucose assay kit (Trinder, Sigma Chemical Co.). As shown in Table VI below EX-2 effect a 72% reduction in blood glucose levels.

“Ac-Nle-Gln-His-(D)Phe-Arg-(D)Trp-Gly-NH2 [EX-2]”: in assay [1], the “Reduction in IL-6 levels” value was 60%. Moreover, the “Reduction in IL-1-induced Hyperalgesia (increase in tolerated paw pressure)” value in assay [2] is reported as 125%. The “Reduction in LPS-induced Fever” value in assay [3] (50 μg/kg IP) amounted to 45%; in assay [3] (150 μg/kg IP), 52%. Moreover, the “% Reduction, STZ Diabetes, Blood Glucose (mg/dl)” value in assay [4] came to 72%.
